Laboratory results reported in patent US20250188059A1, “NOVEL COMPOUND AND USE THEREOF FOR INHIBITING CHECKPOINT KINASE 2” (ARUM THERAPEUTICS INC, priority 2022, published 2025).
Where two headings read alike, the source gives them in different places.

Experiments:
[1] = system: human breast cancer cell line MCF-7; experiment: Cancer cell growth inhibition test (CellTiter-Glo); format: cell-based; conditions: MCF-7, 72 hours
Procedure: The human breast cancer cell line MCF-7 was treated with trypsin and harvested. The number of cells was counted, and about 3000 cells/80 μl per well were inoculated into a 96 well plate (Corning) and then incubated in a 37° C. incubator for 24 hours. Thereafter, the example compounds were diluted in a culture solution at various concentrations, and each well was treated with 20 μl and stored in a cell culture incubator for 72 hours. In the case of the group administered in combination, the example compounds and cisplatin or doxorubicin were diluted in a culture solution at various concentrations, and each well was treated with 20 μl. After 72 hours, each well was treated with 30 μl of CellTiter-Glo solution (Promega), and the luminescence was read on a Victor3 multi label reader (PerkinElmer).
Relative viability (%)=(value of each test well/value of well treated with DMSO alone)×100
The results obtained for each concentration for each example compound were the average values obtained from three wells, and PRIZM software was used for analysis of the results.

Chk1 kinase = Chk1 kinase (Homo sapiens (Human), UniProt O14757); experiment: Chk1 kinase inhibitory activity (LanthaScreen TR-FRET); format: biochemical; conditions: graded
Procedure: (§1) The compounds of Examples 1 to 66 were diluted at various concentrations and transferred to a 384-well plate by 5 μl, and 10 μl of a mixed solution (2×) of Chk1 kinase (Thermo, P3040) or Chk2 kinase (Thermo, PV3367) and a substrate (Thermo, PV3508) was added to wells treated with the compounds. 5 μl of an ATP solution at a 4× concentration was added to the test well and reacted at room temperature for 1 hour. 20 μl of LanthaScreen Terbium-CREB p-Ser 133 antibody (Thermo, PV3542) was added to the reaction well and incubated at room temperature for 30 minutes. Conversion data was measured by an EnVision 2014 multi label reader (PerkinElmer). The activity for each concentration was determined by the ratio (FRET ratio=FR) of the value obtained by dividing the value at 520 nm by the value at 490 nm among the emission wavelength values for each wavelength (Em520/Em490). The results obtained for each concentration of the compounds were the average values obtained in two wells, and the IC50 values of the compounds were calculated using PRIZM software for analysis of the results. IC50 in Table 7 was graded as follows.

Chk2 kinase = Chk2 kinase (Homo sapiens (Human), UniProt O96017); experiment: Chk2 kinase inhibitory activity (LanthaScreen TR-FRET); format: biochemical; conditions: graded
Procedure: as §1

[2] = Homo sapiens, MCF7, 72 h, graded, read-out: Celltiter glo analysis (IC50)

Chain of Chk2 kinase (O96017 whole entry): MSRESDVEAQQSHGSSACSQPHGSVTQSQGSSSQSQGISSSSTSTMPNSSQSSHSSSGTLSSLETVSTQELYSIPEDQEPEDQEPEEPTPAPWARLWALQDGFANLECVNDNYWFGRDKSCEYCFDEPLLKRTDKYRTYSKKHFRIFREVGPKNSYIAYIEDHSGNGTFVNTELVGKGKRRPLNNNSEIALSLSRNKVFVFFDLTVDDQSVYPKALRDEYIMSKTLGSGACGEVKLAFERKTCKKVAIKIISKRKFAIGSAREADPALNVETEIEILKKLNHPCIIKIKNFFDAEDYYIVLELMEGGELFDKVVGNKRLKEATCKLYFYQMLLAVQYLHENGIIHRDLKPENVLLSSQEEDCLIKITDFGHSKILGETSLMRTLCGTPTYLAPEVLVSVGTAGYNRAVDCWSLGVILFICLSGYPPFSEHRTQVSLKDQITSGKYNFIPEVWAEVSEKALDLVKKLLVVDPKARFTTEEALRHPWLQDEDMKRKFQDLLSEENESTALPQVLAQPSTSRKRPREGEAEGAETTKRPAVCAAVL
Chain of Chk1 kinase (O14757 whole entry): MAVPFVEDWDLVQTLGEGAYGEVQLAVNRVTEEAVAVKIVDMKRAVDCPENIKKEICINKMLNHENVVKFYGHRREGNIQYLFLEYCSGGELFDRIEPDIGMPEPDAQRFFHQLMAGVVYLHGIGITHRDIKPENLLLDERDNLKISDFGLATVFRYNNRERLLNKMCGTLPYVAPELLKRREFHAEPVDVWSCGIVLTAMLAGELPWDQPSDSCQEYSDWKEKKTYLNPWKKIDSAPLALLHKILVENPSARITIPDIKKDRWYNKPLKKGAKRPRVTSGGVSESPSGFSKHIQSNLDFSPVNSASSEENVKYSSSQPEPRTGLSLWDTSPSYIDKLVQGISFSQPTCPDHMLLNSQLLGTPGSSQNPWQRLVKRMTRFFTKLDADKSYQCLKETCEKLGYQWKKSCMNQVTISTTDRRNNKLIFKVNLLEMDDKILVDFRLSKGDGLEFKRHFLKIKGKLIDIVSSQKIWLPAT

SMILES: Cn1cc(-c2cccc(-c3cnc(N)c(C(=O)N[C@@H]4CNC[C@@H](F)C4)n3)c2)cn1 [Example 17, 3-amino-N-((3S,5S)-5-fluoropiperidin-3-yl)-6-(3-(1-methyl-1H-pyrazol-4-yl)phenyl)pyrazine-2-carboxamide]
- IC50 [1, 2]: 10000 to 100000 nM
- IC50 (Chk1 kinase): 10 to 100 nM
- IC50 (Chk2 kinase): ≤ 10 nM

SMILES: Cn1cc(-c2ccc(F)c(-c3cnc(N)c(C(=O)N[C@H]4CCCNC4)n3)c2)cn1 [Example 18, (S)-3-amino-6-(2-fluoro-5-(1-methyl-1H-pyrazol-4-yl)phenyl)-N-(piperidin-3-yl)pyrazine-2-carboxamide]
- IC50 [1, 2]: 10000 to 100000 nM
- IC50 (Chk1 kinase): > 1000 nM
- IC50 (Chk2 kinase): 10 to 100 nM

SMILES: Cn1cc(-c2ccc(F)c(-c3cnc(N)c(C(=O)N[C@@H]4CNC[C@@H](F)C4)n3)c2)cn1 [Example 19, 3-amino-6-(2-fluoro-5-(1-methyl-1H-pyrazol-4-yl)phenyl)-N-((3S,5S)-5-fluoropiperidin-3-yl) pyrazine-2-carboxamide]
- IC50 [1, 2]: 10000 to 100000 nM
- IC50 (Chk1 kinase): 100 to 1000 nM
- IC50 (Chk2 kinase): 10 to 100 nM

SMILES: Nc1ncc(-c2ccnc(-c3cnn(C4CC4)c3)c2)nc1C(=O)N[C@H]1CCCNC1 [Example 20, (S)-3-amino-6-(2-(1-cyclopropyl-1H-pyrazol-4-yl)pyridin-4-yl)-N-(piperidin-3-yl)pyrazine-2-carboxamide]
- IC50 [1, 2]: 10000 to 100000 nM
- IC50 (Chk1 kinase): 10 to 100 nM
- IC50 (Chk2 kinase): 10 to 100 nM

SMILES: Nc1ncc(-c2ccnc(-c3cnn(CC(F)(F)F)c3)c2)nc1C(=O)N[C@H]1CCCNC1 [Example 21, (S)-3-amino-N-(piperidin-3-yl)-6-(2-(1-(2,2,2-trifluoroethyl)-1H-pyrazol-4-yl)pyridin-4-yl)pyrazine-2-carboxamide]
- IC50 [1, 2]: 10000 to 100000 nM
- IC50 (Chk1 kinase): 10 to 100 nM
- IC50 (Chk2 kinase): ≤ 10 nM

SMILES: N#CCn1cc(-c2cccc(-c3cnc(N)c(C(=O)N[C@@H]4CNCC[C@H]4O)n3)c2)cn1 [Example 25, 3-amino-6-(3-(1-(cyanomethyl)-1H-pyrazol-4-yl)phenyl)-N-((3R,4R)-4-hydroxypiperidin-3-yl)pyrazine-2-carboxamide]
- IC50 [1, 2]: > 100000 nM
- IC50 (Chk1 kinase): > 1000 nM
- IC50 (Chk2 kinase): 10 to 100 nM

SMILES: N#CCn1cc(-c2cccc(-c3cnc(N)c(C(=O)N[C@@H]4CNC[C@@H](F)C4)n3)c2)cn1 [Example 26, 3-amino-6-(3-(1-(cyanomethyl)-1H-pyrazol-4-yl)phenyl)-N-((3S,5S)-5-fluoropiperidin-3-yl) pyrazine-2-carboxamide]
- IC50 [1, 2]: > 100000 nM
- IC50 (Chk1 kinase): 100 to 1000 nM
- IC50 (Chk2 kinase): 10 to 100 nM

SMILES: N#CCn1cc(-c2cccc(-c3cnc(N)c(C(=O)N[C@H]4CCCNC4)n3)c2)cn1 [Example 27, (S)-3-amino-6-(3-(1-(cyanomethyl)-1H-pyrazol-4-yl)phenyl)-N-(piperidin-3-yl)pyrazine-2-carboxamide]
- IC50 [1, 2]: > 100000 nM
- IC50 (Chk1 kinase): 10 to 100 nM
- IC50 (Chk2 kinase): 10 to 100 nM

SMILES: CC(C)(O)Cn1cc(-c2cccc(-c3cnc(N)c(C(=O)N[C@@H]4CNCC[C@H]4O)n3)c2)cn1 [Example 28, 3-amino-6-(3-(1-(2-hydroxy-2-methylpropyl)-1H-pyrazol-4-yl)phenyl)-N-((3R,4R)-4-hydroxypiperidin-3-yl)pyrazine-2-carboxamide]
- IC50 [1, 2]: > 100000 nM
- IC50 (Chk1 kinase): > 1000 nM
- IC50 (Chk2 kinase): ≤ 10 nM

SMILES: CC(C)(O)Cn1cc(-c2cccc(-c3cnc(N)c(C(=O)N[C@@H]4CNC[C@@H](F)C4)n3)c2)cn1 [Example 29, 3-amino-N-((3S,5S)-5-fluoropiperidin-3-yl)-6-(3-(1-(2-hydroxy-2-methylpropyl)-1H-pyrazol-4-yl)phenyl)pyrazine-2-carboxamide]
- IC50 [1, 2]: 10000 to 100000 nM
- IC50 (Chk1 kinase): 10 to 100 nM
- IC50 (Chk2 kinase): ≤ 10 nM

SMILES: CC(C)(O)Cn1cc(-c2cccc(-c3cnc(N)c(C(=O)N[C@H]4CCCNC4)n3)c2)cn1 [Example 30, (S)-3-amino-6-(3-(1-(2-hydroxy-2-methylpropyl)-1H-pyrazol-4-yl)phenyl)-N-(piperidin-3-yl)pyrazine-2-carboxamide]
- IC50 [1, 2]: > 100000 nM
- IC50 (Chk1 kinase): 10 to 100 nM
- IC50 (Chk2 kinase): ≤ 10 nM

SMILES: Nc1ncc(-c2cc(-c3cnn(C4CC4)c3)ccc2F)nc1C(=O)N[C@H]1CCCNC1 [Example 31, (S)-3-amino-6-(5-(1-cyclopropyl-1H-pyrazol-4-yl)-2-fluorophenyl)-N-(piperidin-3-yl)pyrazine-2-carboxamide]
- IC50 [1, 2]: 10000 to 100000 nM
- IC50 (Chk1 kinase): 100 to 1000 nM
- IC50 (Chk2 kinase): 10 to 100 nM

SMILES: CC(C)(O)Cn1cc(-c2cc(-c3cnc(N)c(C(=O)N[C@@H]4CNCC(F)(F)C4)n3)c(F)cn2)cn1 [Example 32, (S)-3-amino-N-(5,5-difluoropiperidin-3-yl)-6-(5-fluoro-2-(1-(2-hydroxy-2-methylpropyl)-1H-pyrazol-4-yl)pyridin-4-yl)pyrazine-2-carboxamide]
- IC50 ([1]; Homo sapiens, MCF7, 72 h, alone, read-out: Administered alone (IC50)): 33100 nM
- IC50 [1, 2]: 10000 to 100000 nM
- IC50 ([1]; combination with cisplatin, read-out: Administered in combination with cisplatin (IC50)): 4580 nM
- IC50 ([1]; combination with doxorubicin, read-out: Administered in combination with doxorubicin (IC50)): 910 nM
- IC50 (Chk1 kinase): > 1000 nM
- IC50 (Chk2 kinase): > 1000 nM

SMILES: CC(C)(O)Cn1cc(-c2cc(-c3cnc(N)c(C(=O)N[C@@H]4CNCC(F)(F)C4)n3)ccn2)cn1 [Example 33, (S)-3-amino-N-(5,5-difluoropiperidin-3-yl)-6-(2-(1-(2-hydroxy-2-methylpropyl)-1H-pyrazol-4-yl)pyridin-4-yl)pyrazine-2-carboxamide]
- IC50 [1, 2]: 10000 to 100000 nM
- IC50 (Chk1 kinase): > 1000 nM
- IC50 (Chk2 kinase): 100 to 1000 nM

SMILES: CC(C)(O)Cn1cc(-c2ccc(F)c(-c3cnc(N)c(C(=O)N[C@@H]4CNC[C@@H](F)C4)n3)c2)cn1 [Example 35, 3-amino-6-(2-fluoro-5-(1-(2-hydroxy-2-methylpropyl)-1H-pyrazol-4-yl)phenyl)-N-((3S,5S)-5-fluoropiperidin-3-yl)pyrazine-2-carboxamide]
- IC50 [1, 2]: 10000 to 100000 nM
- IC50 (Chk1 kinase): > 1000 nM
- IC50 (Chk2 kinase): 10 to 100 nM

SMILES: CC(C)(O)Cn1cc(-c2ccc(F)c(-c3cnc(N)c(C(=O)N[C@@H]4CNCC(F)(F)C4)n3)c2)cn1 [Example 36, (S)-3-amino-N-(5,5-difluoropiperidin-3-yl)-6-(2-fluoro-5-(1-(2-hydroxy-2-methylpropyl)-1H-pyrazol-4-yl)phenyl)pyrazine-2-carboxamide]
- IC50 [1, 2]: 10000 to 100000 nM
- IC50 (Chk1 kinase): > 1000 nM
- IC50 (Chk2 kinase): > 1000 nM

SMILES: Cc1ccc(-c2cnn(CC(C)(C)O)c2)cc1-c1cnc(N)c(C(=O)N[C@@H]2CNC[C@@H](F)C2)n1 [Example 37, 3-amino-N-((3S,5S)-5-fluoropiperidin-3-yl)-6-(5-(1-(2-hydroxy-2-methylpropyl)-1H-pyrazol-4-yl)-2-methylphenyl) pyrazine-2-carboxamide]
- IC50 [1, 2]: > 100000 nM
- IC50 (Chk1 kinase): > 1000 nM
- IC50 (Chk2 kinase): 10 to 100 nM

SMILES: Cc1ccc(-c2cnn(CC(C)(C)O)c2)cc1-c1cnc(N)c(C(=O)N[C@@H]2CNCC(F)(F)C2)n1 [Example 38, (S)-3-amino-N-(5,5-difluoropiperidin-3-yl)-6-(5-(1-(2-hydroxy-2-methylpropyl)-1H-pyrazol-4-yl)-2-methylphenyl)pyrazine-2-carboxamide]
- IC50 [1, 2]: 10000 to 100000 nM
- IC50 (Chk1 kinase): > 1000 nM
- IC50 (Chk2 kinase): > 1000 nM

SMILES: Nc1ncc(-c2nccc(-c3cnn(CC(F)(F)F)c3)n2)nc1C(=O)N[C@H]1CCCNC1 [Example 39, (S)-3-amino-N-(piperidin-3-yl)-6-(4-(1-(2,2,2-trifluoroethy)-1H-pyrazol-4-yl)pyrimidin-2-yl)pyrazine-2-carboxamide]
- IC50 [1, 2]: 10000 to 100000 nM
- IC50 (Chk1 kinase): 100 to 1000 nM
- IC50 (Chk2 kinase): ≤ 10 nM
